Assay results as given in patent US8669267B2, “Pharmaceutical, food or beverage having inhibitory activity on serotonin transporter” (Suntory Holdings Limited, priority 2008, dated 2014).

Key:
monoamine oxidase A = target: T1, monoamine oxidase A (Homo sapiens, UniProt P21397); conditions: cited from earlier work
T1 sequence (P21397 1-527): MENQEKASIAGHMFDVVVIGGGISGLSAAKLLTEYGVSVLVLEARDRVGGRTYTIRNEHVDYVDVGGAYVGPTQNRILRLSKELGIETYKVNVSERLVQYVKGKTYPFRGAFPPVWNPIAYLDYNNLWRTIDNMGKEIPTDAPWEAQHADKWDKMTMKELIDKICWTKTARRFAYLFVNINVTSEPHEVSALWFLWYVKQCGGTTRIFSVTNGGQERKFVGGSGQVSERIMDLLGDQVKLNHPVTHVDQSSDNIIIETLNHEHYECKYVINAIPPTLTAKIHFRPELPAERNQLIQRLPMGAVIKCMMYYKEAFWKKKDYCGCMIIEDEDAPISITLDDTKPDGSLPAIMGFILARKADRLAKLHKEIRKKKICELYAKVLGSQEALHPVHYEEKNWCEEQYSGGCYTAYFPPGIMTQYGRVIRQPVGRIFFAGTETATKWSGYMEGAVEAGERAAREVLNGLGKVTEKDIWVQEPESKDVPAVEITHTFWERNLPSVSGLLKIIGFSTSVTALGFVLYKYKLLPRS

[1] = system: uptake of serotonin in the brain; conditions: cited from earlier work
rats = conditions: forced-swimming tests using rats; cited from earlier work
[2] = target: T2, human serotonin transporter (Homo sapiens, UniProt P31645); experiment: [3H] imipramine binding to cell homogenate of CHO cells expressing human serotonin transporter; conditions: 100 μg/mL (1S,3S)-MTCA sample; 2 nM [3H] imipramine; 22° C. for 60 minutes; control = 100
T2 construct: expressed in transfected cells; host or cells: CHO cells, vector pRc/CMV, calcium phosphate transfection
T2 sequence (P31645 whole entry): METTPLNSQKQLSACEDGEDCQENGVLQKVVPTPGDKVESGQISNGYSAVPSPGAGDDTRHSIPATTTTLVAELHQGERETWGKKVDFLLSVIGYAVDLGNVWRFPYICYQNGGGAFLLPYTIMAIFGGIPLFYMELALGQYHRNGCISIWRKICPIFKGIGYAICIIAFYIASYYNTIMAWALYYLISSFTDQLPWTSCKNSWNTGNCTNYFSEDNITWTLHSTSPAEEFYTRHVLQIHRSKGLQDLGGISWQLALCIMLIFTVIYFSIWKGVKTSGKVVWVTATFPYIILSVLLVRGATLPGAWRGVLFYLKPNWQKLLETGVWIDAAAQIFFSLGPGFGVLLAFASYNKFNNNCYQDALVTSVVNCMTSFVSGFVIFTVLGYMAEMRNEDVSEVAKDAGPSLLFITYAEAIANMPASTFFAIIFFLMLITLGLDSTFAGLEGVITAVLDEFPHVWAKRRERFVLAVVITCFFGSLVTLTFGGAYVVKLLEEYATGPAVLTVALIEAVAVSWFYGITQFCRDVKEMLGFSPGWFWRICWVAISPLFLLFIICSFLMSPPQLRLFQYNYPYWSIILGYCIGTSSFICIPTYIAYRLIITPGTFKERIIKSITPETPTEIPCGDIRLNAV
Description: A commercially-available (1S,3S)-2,3,4,9-tetrahydro-1-methyl-1H-pyrido[3,4-b]-indole-3-carboxylic acid reagent (manufactured by Wako Pure Chemical Industries, Ltd.) was used as a subject substance ((1S,3S)-MTCA), and the inhibitory effect of (1S,3S)-MTCA on serotonin transporters was determined using a method described in Masahiko T, et al: European Journal of Pharmacology 368 277-283, 1999.
CHO cells were transfected with a secretory vector pRc/CMV, in which cDNA of a human serotonin transporter was incorporated, by a calcium phosphate method. […]
Then, the medium was removed by aspiration to prepare a cell homogenate. […] The concentration of protein in the resulting cell homogenate was measured by a Lowry method using bovine serum albumin (BSA) as a standard.
Thereafter, 25 μL, of (1S,3S)-MTCA solution dissolved in physiological saline (100 μg/mL) and the solution 2 (225 μL) comprising 2 nM [^3H] imipramine were added to a 96-hole microplate, and the cell homogenate (amount of protein: 15 μg) obtained in (1) was added to the microplate, followed by incubation at 22° C. for 60 minutes. […] Non-specific binding of [^3H] imipramine to the cell homogenate was determined using 10 μM imipramine. […]

[3] = system: C57BL/6N mice with motivation decreased through open-space swimming; experiment: Open-space swimming combined with Morris water maze test (escape-latency); type: in vivo
Description: The subjects were […] male C57BL/6N mice that had never been subjected to any experiment. At the beginning of the experiment, an average age of the subjects was about 12 weeks old, and an average weight of the subjects was 24.9 g (SD=3.30). The subjects were housed in an acrylic cage in an animal house in which the room temperature was 23° C. and the humidity was 50 to 60%. The inside of the animal house was set such that a light is alternately turned on and off in a 12-hour cycle (light period: from 8:00 AM to 8:00 PM). This experiment was carried out every day at the same time period during the light period. As feedstuff, a dry solid feed (Labo MR manufactured by Nosan Corporation) was fed. The supply of neither feedstuff nor water was limited.
The subjects were divided into 3 groups, and they were named noOS-Vehicle group (group of normal mice) (n=10), OS-(1S,3S)-MTCA-administered group (n=10), and OS-Vehicle group (group of mice having depression) (n=10), respectively.
A circular pool with an inner diameter of 95 cm and a depth of 35 cm was used. The pool was surrounded by white partitions each having a height of 120 cm and a width of 150 cm. […] The place where the escape platform was located was a central part of one of the four evenly-divided fan-shaped quadrants (Quadrant 1 to 4) of a circular water surface, and was determined for each subject. […]

γ-crystallin = conditions: cited from earlier work

amount of [3H] imipramine that specifically bound to the cell homogenate (control was 100) [2] | Compound | activity of monoamine oxidase A (monoamine oxidase A) | uptake of serotonin in the brain [1] | immobility time (rats) | average escape-latency (average of five trials) ([3]; Day 1 of administration, 20 mg/kg orally 60 minutes before training, open-space swimming treated mice, OS-Vehicle 52.6, noOS-Vehicle 44.1) | time taken to reach the escape platform compared with the OS-Vehicle group ([3]; continuous administration up to Day 10, 20 mg/kg orally every day, FIG. 3) | self-polymerization reaction of γ-crystallin (γ-crystallin; Fenton reaction using FeCl3) | photopolymerization reaction of γ-crystallin (γ-crystallin)
– | COc1ccc2[nH]c3c(c2c1)CCNC3 [pinoline, 6-methoxy-1,2,3,4-tetrahydro-β-carboline] | inhibits | inhibits | reduces | – | – | – | –
69 | C[C@@H]1N[C@H](C(=O)O)Cc2c1[nH]c1ccccc21 [(1S,3S)-MTCA, (1S,3S)-1-methyl-1,2,3,4-tetrahydro-β-carboline-3-carboxylic acid] | – | – | – | 42.7 s | decreased significantly | prevents | prevents
